These are literature values, as cited in patent US20090227460A1, “STABILIZED OIL-IN-WATER EMULSIONS INCLUDING MEPTYL DINOCAP” (Dow AgroSciences LLC, priority 2008, published 2009).

With “2,6-dinitro-4-octylphenyl crotonates and 2,4-dinitro-6-octylphenyl crotonates in which ‘octyl’ is a mixture of 1-methylheptyl, 1-ethylhexyl and 1-propylpentyl groups [Meptyl Dinocap]”, the solubility in water was 0.151 µg/mL.
